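Method: 48-hour compound exposure of cells in 96-well plates, five concentrations, linear interpolation of endpoints. TGI: concentration producing complete growth inhibition.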
Experiments:
Test in all cases: DTP human tumour cell line panel, 48 h
[1] = system: A498 renal
[2] = system: HOP-62 NSCLC
[3] = system: HT29 colon
[4] = system: MALME-3M melanoma
[5] = system: NCI-H23 lung
[6] = system: NCI/ADR-RES ovarian
[7] = system: OVCAR-8 ovarian
[8] = system: RPMI-8226 leukemia
[9] = system: SF-268 CNS
[10] = system: UO-31 renal

CC(C)(C)OC(=O)NC(CSSCC(NC(=O)OC(C)(C)C)C(=O)O)C(=O)O (stereo not given)
TGI [1]: > 100 µM | TGI [2]: > 100 µM | TGI [3]: > 100 µM | TGI [4]: > 100 µM | TGI [5]: > 100 µM | TGI [6]: > 100 µM | TGI [7]: > 100 µM | TGI [8]: > 100 µM | TGI [9]: > 100 µM | TGI [10]: > 100 µM

COc1cc(C2c3cc4c(cc3[C@@H](Nc3ccccc3)C3COC(=O)[C@H]23)OCO4)cc(OC)c1O (stereo not given in full)
TGI [1]: 1.65 µM | TGI [2]: 0.671 µM | TGI [3]: 3.64 µM | TGI [4]: 8.65 µM | TGI [5]: 3.01 µM | TGI [6]: 45.2 µM | TGI [7]: > 19.7 µM | TGI [8]: 2.23 µM | TGI [9]: 13.2 µM | TGI [10]: 5.07 µM

CN1CC[C@]2(c3cccc(O)c3)CC(=O)/C(=C/c3ccccc3)[C@@H]1C2
TGI [1]: 17 µM | TGI [2]: 12.7 µM | TGI [3]: 7.55 µM | TGI [4]: 10.4 µM | TGI [5]: 36.8 µM | TGI [6]: 16.1 µM | TGI [7]: 10.5 µM | TGI [8]: 4.84 µM | TGI [9]: 10.4 µM | TGI [10]: 10.4 µM

CSc1nc2c(c(N(C)C)n1)C(O)n1c(nc3ccccc31)S2 (stereo not given)
TGI [1]: > 100 µM | TGI [2]: 69.1 µM | TGI [3]: > 100 µM | TGI [4]: > 100 µM | TGI [5]: > 100 µM | TGI [6]: > 100 µM | TGI [7]: > 56.8 µM | TGI [8]: > 100 µM | TGI [9]: > 100 µM | TGI [10]: > 100 µM
